Legend:
[1] = for viscosity / mass density: 101.33 kPa, Liquid; for viscosity: Concentric cylinders viscometry; for mass density: Vibrating tube method; for Glass transition temperature: DSC; for Normal melting temperature: Crystal, DTA
[2] = refractive index (Na D-line) (dimensionless); conditions: 101.33 kPa, Liquid, Standard Abbe refractometry

Cc1ccc(S(=O)(=O)[O-])cc1.N#CCCn1cc[nH+]c1 [1-(2-cyanoethyl)imidazolium 4-methylbenzenesulfonate]
Conditions	mass density, [1] [kg/m3]	refractive index, [2]	viscosity, [1] [mPa·s]
293.15 K	–	1.54509	–
298.15 K	–	1.54414	–
303.15 K	1266.3	1.54297	24795
308.15 K	–	1.54177	–
313.15 K	1259.6	1.54051	6910.9
318.15 K	–	1.53926	–
323.15 K	1253	1.53798	2376.6
333.15 K	1247.9	–	977.44
343.15 K	1241.2	–	459.63
353.15 K	1233.7	–	239.96
363.15 K	1229.1	–	138.89
373.15 K	1221.5	–	85.89

Conditions	Glass transition temperature [°C]
[1]	-57.34

CC(=O)[O-].N#CCCn1cc[nH+]c1 [1-(2-cyanoethyl)imidazolium acetate]
Conditions	mass density, [1] [kg/m3]	refractive index, [2]	viscosity, [1] [mPa·s]
293.15 K	1127.7	1.48534	108.22
298.15 K	–	1.48368	–
303.15 K	1120.5	1.48197	55.28
308.15 K	–	1.48025	–
313.15 K	1113	1.47851	31.57
318.15 K	–	1.4768	–
323.15 K	1105.2	1.47508	19.79
333.15 K	1097.7	–	13.32
343.15 K	1089.8	–	9.483
353.15 K	1082	–	7.118
363.15 K	1073.2	–	5.294
373.15 K	1062.2	–	4.252

Conditions	Glass transition temperature [°C]
[1]	-78.12

N#CCCn1cc[nH+]c1.O=S(=O)([O-])O [1-(2-cyanoethyl)imidazolium hydrogen sulfate]
Conditions	mass density, [1] [kg/m3]	refractive index, [2]	viscosity, [1] [mPa·s]
293.15 K	1429.4	1.5022	7937
298.15 K	–	1.50138	–
303.15 K	1423.3	1.50034	3102.2
308.15 K	–	1.49927	–
313.15 K	1417.4	1.49817	1397.9
318.15 K	–	1.49708	–
323.15 K	1411.4	1.49599	707.69
333.15 K	1405	–	394.22
343.15 K	1398.8	–	236.85
353.15 K	1393	–	151.62
363.15 K	1385.9	–	102.28
373.15 K	1378.6	–	72.1

Conditions	Glass transition temperature [°C]
[1]	-49.71

CS(=O)(=O)[O-].N#CCCn1cc[nH+]c1 [1-(2-cyanoethyl)imidazolium methanesulfonate]
Conditions	Glass transition temperature [°C]
[1]	-59.40

[2]
Conditions	refractive index
293.15 K	1.50224
298.15 K	1.50096
303.15 K	1.49962
308.15 K	1.49826
313.15 K	1.49686
318.15 K	1.49547
323.15 K	1.49402

N#CCCn1cc[nH+]c1.O=C([O-])C(F)(F)F [1-(2-cyanoethyl)imidazolium trifluoroacetate]
Conditions	Normal melting temperature [°C]
[1]	-13.48

N#CCCn1cc[nH+]c1.O=S(=O)([O-])C(F)(F)F [1-(2-cyanoethyl)imidazolium trifluoromethanesulfonate]
Conditions	Normal melting temperature [°C]
[1]	99.67

Cn1ccnc1.O=S(=O)(O)O [1-methylimidazolium hydrogen sulfate]
[1]
Conditions	Glass transition temperature [°C]	Normal melting temperature [°C]
–	-73.49	20.88

[2]
Conditions	refractive index
293.15 K	1.48955
298.15 K	1.48865
303.15 K	1.48761
308.15 K	1.48655
313.15 K	1.48552
318.15 K	1.48432
323.15 K	1.48311

From the NIST ThermoML archive (doi:10.1021/acs.jced.6b00450)
